Results reported in patent US9505728B2, “Triazolone compounds and uses thereof” (INCEPTION 2, INC., priority 2012, dated 2016).
Read-outs that look alike come from different tables or passages of the source.

What was measured:
Type in all cases: cell-based
Human PPARα = target: T1, Human PPARα (Homo sapiens, UniProt Q07869); test: Human PPARα Reporter Assay (luciferase)
T1 construct: host or cells: proprietary non-human mammalian cells
T1 sequence (Q07869 1-468): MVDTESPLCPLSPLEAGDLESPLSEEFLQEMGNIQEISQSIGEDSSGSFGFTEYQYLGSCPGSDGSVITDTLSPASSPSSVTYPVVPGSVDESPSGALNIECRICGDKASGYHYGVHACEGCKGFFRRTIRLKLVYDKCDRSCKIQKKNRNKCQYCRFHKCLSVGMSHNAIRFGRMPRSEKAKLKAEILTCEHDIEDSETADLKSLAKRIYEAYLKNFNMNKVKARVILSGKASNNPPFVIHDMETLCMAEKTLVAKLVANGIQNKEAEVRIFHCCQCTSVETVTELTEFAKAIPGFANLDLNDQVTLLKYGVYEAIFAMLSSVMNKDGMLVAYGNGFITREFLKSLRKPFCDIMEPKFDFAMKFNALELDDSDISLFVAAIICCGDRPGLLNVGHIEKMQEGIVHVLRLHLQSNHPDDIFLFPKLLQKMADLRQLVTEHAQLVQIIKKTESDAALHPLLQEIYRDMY
In short: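 Non-human mammalian cells constitutively expressing human PPARα with a PPARα-responsive luciferase reporter were dosed with compounds right after plating. After overnight incubation, media removed and detection reagent added; luminescence taken as proportional to PPARα activation, agonist or antagonist mode.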

PPAR beta/delta = target: T2, PPAR beta/delta (Homo sapiens, UniProt Q03181); test: Target selectivity counterscreen, PPAR β/δ reporter assay; conditions: receptor agonist at ~EC80
T2 construct: host or cells: engineered reporter cells of the kit
T2 sequence (Q03181 1-441): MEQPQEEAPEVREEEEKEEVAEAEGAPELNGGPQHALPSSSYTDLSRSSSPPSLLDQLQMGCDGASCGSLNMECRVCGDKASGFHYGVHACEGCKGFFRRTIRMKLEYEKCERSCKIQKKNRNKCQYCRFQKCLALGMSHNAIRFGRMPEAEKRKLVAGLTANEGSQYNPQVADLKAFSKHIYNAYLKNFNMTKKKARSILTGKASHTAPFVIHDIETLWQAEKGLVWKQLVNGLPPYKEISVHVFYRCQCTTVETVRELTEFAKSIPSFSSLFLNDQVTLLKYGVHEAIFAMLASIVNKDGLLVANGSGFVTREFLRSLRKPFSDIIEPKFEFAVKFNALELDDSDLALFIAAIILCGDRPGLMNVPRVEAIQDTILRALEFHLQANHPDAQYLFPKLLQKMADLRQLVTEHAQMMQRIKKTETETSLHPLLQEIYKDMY
Method: (§1) Target Selectivity Assays
(§2) To determine species selectivity, a Mouse PPARα Reporter Assay System was used (Indigo Biosciences, Cat. #M00111). Activity of test compounds to antagonize or agonize other isoforms of human PPAR, for example β/δ and γ, were assessed using the corresponding kits from Indigo Biosciences (Cat. #IB00121 and #IB00101, respectively). In addition to PPAR activity, compounds were also screened for activity against other nuclear hormone receptors including Estrogen Receptor β, Glucocorticoid Receptor and Thyroid Receptor β using commercially available kits (Indigo Biosciences, Cat. #IB00411, IB00201 and IB01101, respectively). Each assay system from Indigo Biosciences uses technology analogous to the human PPARα kit, with the variance being that the cells used for each assay were engineered to over-express the receptor of interest. In addition, the appropriate receptor agonist (included with each kit) was used at ˜EC80 for assays in which antagonist potency was being assessed.

PPAR gamma = target: T3, PPAR gamma (Homo sapiens, UniProt P37231); test: Target selectivity counterscreen, PPAR γ reporter assay; conditions: receptor agonist at ~EC80
T3 construct: host or cells: engineered reporter cells of the kit
T3 sequence (P37231 1-505): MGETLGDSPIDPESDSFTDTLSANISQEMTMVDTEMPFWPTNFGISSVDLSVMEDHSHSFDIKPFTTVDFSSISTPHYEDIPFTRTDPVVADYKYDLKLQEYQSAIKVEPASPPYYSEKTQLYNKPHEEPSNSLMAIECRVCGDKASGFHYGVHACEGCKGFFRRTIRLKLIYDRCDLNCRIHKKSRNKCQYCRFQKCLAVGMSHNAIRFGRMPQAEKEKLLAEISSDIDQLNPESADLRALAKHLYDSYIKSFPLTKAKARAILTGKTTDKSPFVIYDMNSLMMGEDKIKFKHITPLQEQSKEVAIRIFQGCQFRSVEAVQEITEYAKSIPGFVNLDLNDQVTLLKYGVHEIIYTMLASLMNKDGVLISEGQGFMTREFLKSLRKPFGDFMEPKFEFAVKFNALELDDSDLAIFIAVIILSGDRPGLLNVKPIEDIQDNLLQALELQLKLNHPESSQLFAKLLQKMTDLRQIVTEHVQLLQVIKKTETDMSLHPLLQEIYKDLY
Method: as §1, §2

Thyroid Receptor β = target: T4, Thyroid Receptor β (Homo sapiens, UniProt P10828); test: Target selectivity counterscreen, Thyroid Receptor β reporter assay; conditions: receptor agonist at ~EC80
T4 construct: host or cells: engineered reporter cells of the kit
T4 sequence (P10828 1-461): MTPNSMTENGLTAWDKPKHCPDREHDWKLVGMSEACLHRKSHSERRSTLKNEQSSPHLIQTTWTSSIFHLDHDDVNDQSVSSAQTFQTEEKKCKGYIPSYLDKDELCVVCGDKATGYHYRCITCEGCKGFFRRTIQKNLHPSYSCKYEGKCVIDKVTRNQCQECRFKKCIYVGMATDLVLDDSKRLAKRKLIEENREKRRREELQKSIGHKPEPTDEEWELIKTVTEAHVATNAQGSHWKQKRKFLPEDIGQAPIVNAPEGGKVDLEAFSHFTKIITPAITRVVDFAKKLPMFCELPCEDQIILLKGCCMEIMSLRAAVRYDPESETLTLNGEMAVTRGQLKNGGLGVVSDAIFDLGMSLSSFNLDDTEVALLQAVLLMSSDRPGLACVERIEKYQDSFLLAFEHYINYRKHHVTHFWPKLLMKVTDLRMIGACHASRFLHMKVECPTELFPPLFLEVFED
Method: as §1, §2

Glucocorticoid Receptor = target: T5, Glucocorticoid Receptor (Homo sapiens, UniProt P04150); test: Target selectivity counterscreen, Glucocorticoid Receptor reporter assay; conditions: receptor agonist at ~EC80
T5 construct: host or cells: engineered reporter cells of the kit
T5 sequence (P04150 1-777): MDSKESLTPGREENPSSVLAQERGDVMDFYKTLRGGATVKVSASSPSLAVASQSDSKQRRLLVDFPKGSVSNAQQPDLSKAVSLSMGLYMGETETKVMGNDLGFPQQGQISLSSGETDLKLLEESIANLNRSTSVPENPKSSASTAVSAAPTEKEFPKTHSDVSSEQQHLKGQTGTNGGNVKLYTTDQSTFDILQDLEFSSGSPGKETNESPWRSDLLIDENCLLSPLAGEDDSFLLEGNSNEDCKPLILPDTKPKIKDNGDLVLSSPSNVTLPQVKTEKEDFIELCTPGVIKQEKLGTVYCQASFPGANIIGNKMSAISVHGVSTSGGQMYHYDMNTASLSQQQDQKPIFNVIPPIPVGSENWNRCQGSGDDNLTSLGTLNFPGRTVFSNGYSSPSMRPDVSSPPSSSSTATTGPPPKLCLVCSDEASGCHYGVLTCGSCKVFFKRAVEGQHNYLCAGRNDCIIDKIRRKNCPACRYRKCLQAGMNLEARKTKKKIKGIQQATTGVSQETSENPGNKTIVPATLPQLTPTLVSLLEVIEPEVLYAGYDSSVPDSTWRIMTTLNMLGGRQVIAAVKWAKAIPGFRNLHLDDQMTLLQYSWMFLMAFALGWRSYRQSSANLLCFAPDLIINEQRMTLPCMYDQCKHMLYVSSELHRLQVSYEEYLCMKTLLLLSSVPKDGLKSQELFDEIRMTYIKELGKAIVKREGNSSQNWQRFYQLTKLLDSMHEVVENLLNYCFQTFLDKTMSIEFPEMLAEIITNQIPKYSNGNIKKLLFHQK
Method: as §1, §2

Estrogen Receptor β = target: T6, Estrogen Receptor β (Homo sapiens, UniProt Q92731); test: Target selectivity counterscreen, Estrogen Receptor β reporter assay; conditions: receptor agonist at ~EC80
T6 construct: host or cells: engineered reporter cells of the kit
T6 sequence (Q92731 whole entry): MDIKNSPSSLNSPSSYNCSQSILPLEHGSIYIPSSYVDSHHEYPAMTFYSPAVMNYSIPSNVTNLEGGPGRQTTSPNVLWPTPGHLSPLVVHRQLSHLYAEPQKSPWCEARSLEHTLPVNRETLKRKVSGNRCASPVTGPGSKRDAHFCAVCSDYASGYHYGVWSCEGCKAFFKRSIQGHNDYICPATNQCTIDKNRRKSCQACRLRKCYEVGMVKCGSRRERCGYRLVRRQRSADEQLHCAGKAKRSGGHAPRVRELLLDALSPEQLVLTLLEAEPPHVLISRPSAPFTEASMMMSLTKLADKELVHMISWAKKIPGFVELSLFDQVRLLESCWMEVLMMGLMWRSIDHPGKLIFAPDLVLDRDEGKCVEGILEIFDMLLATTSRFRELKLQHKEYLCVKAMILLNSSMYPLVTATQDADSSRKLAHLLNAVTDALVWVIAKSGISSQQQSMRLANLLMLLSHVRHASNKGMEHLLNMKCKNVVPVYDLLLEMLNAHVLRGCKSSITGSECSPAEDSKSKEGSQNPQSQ
Method: as §1, §2

[1] = human PPARα reporter cells, overnight incubation, antagonism, read-out: Luciferase IC50

Row | SMILES | IC50 (Human PPARα; [1]) [nM] | further results
1 | CCn1c(CCCc2ccc(-c3cccc(CC(=O)O)c3)cc2)nn(Cc2ccccc2)c1=O [Example 23, 2-(4′-(3-(1-Benzyl-4-ethyl-5-oxo-4,5-dihydro-1H-1,2,4-triazol-3-yl)propyl)-[1,1′-biphenyl]-3-yl)acetic acid] | 7310 | IC50 (Human PPARα; counterscreen table, antagonist potency, read-out: PPAR alpha IC50): 25 nM; IC50 (PPAR beta/delta): > 50000 nM; IC50 (PPAR gamma): > 50000 nM; IC50 (Thyroid Receptor β): > 10000 nM; IC50 (Glucocorticoid Receptor): > 10000 nM; IC50 (Estrogen Receptor β): 17500 nM
2 | CCn1c(CCCc2ccc(-c3cc(CC(=O)O)cc(OC)c3)cc2)nn(Cc2ccc(C(C)(C)C)cc2)c1=O [Example 194, 2-(3-{4-[3-(1-{[4-(tert-Butyl)phenyl]methyl}-4-ethyl-5-oxo(1,2,4-triazolin-3-yl))propyl]phenyl}-5-methoxyphenyl)acetic acid] | 83 | –
3 | CCn1c(CCC(F)(F)c2ccc(-c3ccc(C4(F)COC4)cn3)cc2)nn(Cc2ccc(C(C)(C)C)cc2)c1=O [Example 195, 1-(4-(tert-Butyl)benzyl)-3-(3,3-difluoro-3-(4-(5-(3-fluorooxetan-3-yl)pyridine-2-yl)phenyl)propyl)-4-ethyl-1H-1,2,4-triazol-5(4H)-one] | 49 | –
4 | CCn1c(CCC(F)(F)c2ccc(-c3ccc(C4(O)COC4)cc3)cc2)nn(Cc2ccc(C(C)(C)C)cc2)c1=O [Example 196, 1-(4-(tert-Butyl)benzyl)-3-(3,3-difluoro-3-(4′-(3-hydroxyoxetan-3-yl)-[1,1′-biphenyl]-4-yl)propyl)-4-ethyl-1H-1,2,4-triazol-5(4H)-one] | 110 | –
5 | CCn1c(CCCc2ccc(-c3ccc(C4(O)COC4)cn3)cc2)nn(Cc2ccc(C(C)(C)C)cc2)c1=O [Example 197, 1-(4-(tert-Butyl)benzyl)-4-ethyl-3-(3-(4-(5-(3-hydroxyoxetan-3-yl)pyridine-2-yl)phenyl)propyl)-1H-1,2,4-triazol-5(4H)-one] | 106 | –
6 | CCn1c(CCCc2ccc(-c3ccc(OC)c(CC(=O)O)c3)cn2)nn(Cc2ccc(C(C)(C)C)cc2)c1=O [Example 198, 2-(5-(6-(3-(1-(4-(tert-Butyl)benzyl)-4-ethyl-5-oxo-4,5-dihydro-1H-1,2,4-triazol-3-yl)propyl)pyridin-3-yl)-2-methoxyphenyl)acetic acid] | 623 | –
7 | CCn1c(CCCc2ccc(-c3ccc(CC(=O)O)c(OC)c3)cc2)nn(Cc2ccc(C(C)(C)C)cc2)c1=O [Example 199, 2-(4′-(3-(1-(4-(tert-Butyl)benzyl)-4-ethyl-5-oxo-4,5-dihydro-1H-1,2,4-triazol-3-yl)propyl)-3-methoxy-[1,1′-biphenyl]-4-yl)acetic acid] | 292 | –
8 | CCn1c(CCCc2ccc(-c3ccc(OC(C)C)c(CC(=O)O)c3)cc2)nn(Cc2ccc(C(C)(C)C)cc2)c1=O [Example 200, 2-(4′-(3-(1-(4-(tert-Butyl)benzyl)-4-ethyl-5-oxo-4,5-dihydro-1H-1,2,4-triazol-3-yl)propyl)-4-isopropoxy-[1,1′-biphenyl]-3-yl)acetic acid] | 13 | –
9 | CCn1c(CCCc2ccc(-c3csc(C4(F)COC4)n3)cc2)nn(Cc2ccc(C(C)(C)C)cc2)c1=O [Example 201, 1-(4-(tert-Butyl)benzyl)-4-ethyl-3-(3-(4-(2-(3-fluorooxetan-3-yl)thiazol-4-yl)phenyl)propyl)-1H-1,2,4-triazol-5(4H)-one] | 533 | –
10 | CCn1c(CCCc2ccc(-c3cnc(C4(F)COC4)s3)cc2)nn(Cc2ccc(C(C)(C)C)cc2)c1=O [Example 202, 1-(4-(tert-Butyl)benzyl)-4-ethyl-3-(3-(4-(2-(3-fluorooxetan-3-yl)thiazol-5-yl)phenyl)propyl)-1H-1,2,4-triazol-5(4H)-one] | 51 | –
11 | CCn1c(CCCc2ccc(-c3csc(C4(O)COC4)n3)cc2)nn(Cc2ccc(C(C)(C)C)cc2)c1=O [Example 203, 1-(4-(tert-Butyl)benzyl)-4-ethyl-3-(3-(4-(2-(3-hydroxyoxetan-3-yl)thiazol-4-yl)phenyl)propyl)-1H-1,2,4-triazol-5(4H)-one] | 873 | –
12 | CCn1c(CCCc2ccc(-c3cnc(C4(O)COC4)s3)cc2)nn(Cc2ccc(C(C)(C)C)cc2)c1=O [Example 204, 1-(4-(tert-Butyl)benzyl)-4-ethyl-3-(3-(4-(2-(3-hydroxyoxetan-3-yl)thiazol-5-yl)phenyl)propyl)-1H-1,2,4-triazol-5(4H)-one] | 50 | –
